Assay results reported in ChEMBL document CHEMBL4304765 (ACS Med Chem Lett, 2019).
pIC50, pKi: −log10 of the molar value. Calls of active or inactive are those of the source.

Legend:
[1] = biological target: T1, Bifunctional epoxide hydrolase 2 (Homo sapiens, UniProt P34913); test: Inhibition of recombinant human full length soluble epoxide hydrolase (1 to 555 residues) expressed in Escherichia coli BL21(DE3) using non-fluorescent PHOME as substrate preincubated for 30 mins followed by substrate addition and measured after 30 mins by fluorescence based assay
T1 sequence (P34913 whole entry): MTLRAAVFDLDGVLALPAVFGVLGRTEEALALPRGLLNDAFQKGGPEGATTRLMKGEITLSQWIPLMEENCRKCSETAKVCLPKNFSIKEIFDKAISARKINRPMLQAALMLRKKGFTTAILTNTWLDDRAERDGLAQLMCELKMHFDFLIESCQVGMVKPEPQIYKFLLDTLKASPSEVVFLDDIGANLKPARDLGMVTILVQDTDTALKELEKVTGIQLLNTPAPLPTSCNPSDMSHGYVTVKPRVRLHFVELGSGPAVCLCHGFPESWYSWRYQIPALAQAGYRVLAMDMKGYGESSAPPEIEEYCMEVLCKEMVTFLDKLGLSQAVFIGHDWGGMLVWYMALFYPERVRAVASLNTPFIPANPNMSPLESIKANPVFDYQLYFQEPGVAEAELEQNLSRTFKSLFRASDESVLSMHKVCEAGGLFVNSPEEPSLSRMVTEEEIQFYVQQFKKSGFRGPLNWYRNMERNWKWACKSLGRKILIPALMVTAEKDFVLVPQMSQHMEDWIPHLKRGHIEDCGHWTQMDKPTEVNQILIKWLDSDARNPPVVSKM

[2] = biological target: Beta-2 adrenergic receptor (Homo sapiens, UniProt P07550); test: Binding affinity to beta2 adrenergic receptor (unknown origin) by radioligand binding assay
[3] = Metabolic stability in Sprague-Dawley rat liver microsomes at 10 uM preincubated for 5 mins followed by NADPH addition and measured for 60 mins by HPLC analysis; type: ADME, Microsome; conditions: read-out: Stability
[4] = biological target: Beta-1 adrenergic receptor (Homo sapiens, UniProt P08588); test: Binding affinity to beta1 adrenergic receptor (unknown origin) by radioligand binding assay
[5] = biological target: T2, Bifunctional epoxide hydrolase 2 (Homo sapiens) (UniProt P34913)
T2 sequence (whole entry): T1 sequence (P34913 whole entry)
Description: Binding affinity to recombinant human C-terminal soluble epoxide hydrolase-hydrolase domain (222 to 555 residues) expressed in Escherichia coli BL21(DE3) assessed as change in melting temperature at 200 uM by SYPRO orange dye-based differential scanning fluorimetric analysis (Rvb = 57.0 +/- 0.0 degreeC)

Rattus norvegicus = test: Antiallodynic activity in streptozocin-induced Sprague-Dawley rat of diabetic neuropathy model assessed as increase in mechanical withdrawal threshold at 10 mg/kg administered via oral gavage and measured for 3 to 4 times at 1 min interval by von Frey assay; type: functional, organism-based

| SMILES | pIC50 ([1]; read-out: IC50) | Activity [2] | remaining at 1 h, 10 µM [3] | Activity [4] | Tm [5] | Activity (Rattus norvegicus) | IC50 [1] | pKi [2] | pKi [4] |
| --- | --- | --- | --- | --- | --- | --- | --- | --- | --- |
| CC(C)(C)N1CCOC(COc2ccc(NC(=O)NC3CCCCC3)cc2)C1 (configuration not stated) | 7.11 | inactive | 71% | inactive | 65.1 °C | Active |  |  |  |
| CC(C)NCC(O)COc1cccc2ccccc12 (configuration not stated) [PROPRANOLOL] |  |  | 37% |  | 56.3 °C |  | Not Active |  |  |
| CC(C)(C)NCC(O)COc1ccc(NC(=O)NC2CCCCC2)cc1 (configuration not stated) [TALINOLOL] |  |  | 86% |  |  |  |  | 6.05 | 6.62 |
